# Experimental data from PMC5218480 (PLoS ONE, 2017).
# Tested on: MV-4-11 cells
# Test: Gene expression microarray analysis (Affymetrix PrimeView) and GSEA
# Assay type: cell-based, human
# Parameters: RFU PODN (11730768_x_at) / Fold change /veh PODN (11730768_x_at) / RFU LINC00158 (11744669_a_at) / Fold change /veh LINC00158 (11744669_a_at) / RFU DUSP10 (11751237_a_at) / Fold change /veh DUSP10 (11751237_a_at) / RFU ID3 (11757404_x_at) / Fold change /veh ID3 (11757404_x_at) / RFU PLEKHG5 (11737974_s_at) / Fold change /veh PLEKHG5 (11737974_s_at) / RFU LRRC4B (11730491_at) / Fold change /veh LRRC4B (11730491_at) / RFU GIMAP4 (11747438_a_at) / Fold change /veh GIMAP4 (11747438_a_at) / RFU KRT8 (11758183_x_at) / Fold change /veh KRT8 (11758183_x_at) / RFU CNN1 (11734310_a_at) / Fold change /veh CNN1 (11734310_a_at) / RFU VPS37D (11726825_at) / Fold change /veh VPS37D (11726825_at) / RFU C10orf10 (11716522_x_at) / Fold change /veh C10orf10 (11716522_x_at) / RFU KIR2DL2 /// KIR2DL4 /// KIR2DL5A /// KIR2DL5B /// KIR2DS1 /// KIR2DS2 /// KIR2DS3 /// KIR2DS4 /// KIR3DL3 /// KIR3DL3 /// KIR3DS1 (11738374_at) / Fold change /veh KIR2DL2 /// KIR2DL4 /// KIR2DL5A /// KIR2DL5B /// KIR2DS1 /// KIR2DS2 /// KIR2DS3 /// KIR2DS4 /// KIR3DL3 /// KIR3DL3 /// KIR3DS1 (11738374_at) / RFU C1QL1 (11718748_at) / Fold change /veh C1QL1 (11718748_at) / RFU TMPRSS4 (11747572_a_at) / Fold change /veh TMPRSS4 (11747572_a_at) / RFU HAMP (11756126_x_at) / Fold change /veh HAMP (11756126_x_at) / RFU RNFT2 (11725882_a_at) / Fold change /veh RNFT2 (11725882_a_at) / RFU NR4A2 (11747474_a_at) / Fold change /veh NR4A2 (11747474_a_at) / RFU ABCC12 (11746883_a_at) / Fold change /veh ABCC12 (11746883_a_at) / RFU TMEM136 (11760407_x_at) / Fold change /veh TMEM136 (11760407_x_at) / RFU CLDN22 /// WWC2 (11732394_at) / Fold change /veh CLDN22 /// WWC2 (11732394_at) / RFU HLA-DPB1 (11760878_x_at) / Fold change /veh HLA-DPB1 (11760878_x_at) / RFU SPINT1 (11716480_a_at) / Fold change /veh SPINT1 (11716480_a_at) / RFU GAP43 (11754022_s_at) / Fold change /veh GAP43 (11754022_s_at) / RFU A4GNT (11735810_at) / Fold change /veh A4GNT (11735810_at) / RFU PRB3 (11715151_x_at) / Fold change /veh PRB3 (11715151_x_at) / RFU TUBB4B (11761932_at) / Fold change /veh TUBB4B (11761932_at) / RFU CAPN14 (11732068_a_at) / Fold change /veh CAPN14 (11732068_a_at) / RFU TMCC2 (11721928_a_at) / Fold change /veh TMCC2 (11721928_a_at) / RFU IRGQ (11745062_a_at) / Fold change /veh IRGQ (11745062_a_at) / RFU FAM174B (11720279_a_at) / Fold change /veh FAM174B (11720279_a_at) / RFU TMPRSS4 (11748680_a_at) / Fold change /veh TMPRSS4 (11748680_a_at) / RFU FAM212B (11763350_a_at) / Fold change /veh FAM212B (11763350_a_at) / RFU PLEKHG5 (11743358_a_at) / Fold change /veh PLEKHG5 (11743358_a_at) / RFU ZSCAN30 (11745921_a_at) / Fold change /veh ZSCAN30 (11745921_a_at) / RFU CMKLR1 (11741424_a_at) / Fold change /veh CMKLR1 (11741424_a_at) / RFU LOC101060620 /// MAPK8IP1 (11723275_at) / Fold change /veh LOC101060620 /// MAPK8IP1 (11723275_at) / RFU SPTSSB (11747773_x_at) / Fold change /veh SPTSSB (11747773_x_at) / RFU PRSS12 (11739890_at) / Fold change /veh PRSS12 (11739890_at) / RFU BIN1 (11741810_x_at) / Fold change /veh BIN1 (11741810_x_at) / RFU WNT11 (11732464_a_at) / Fold change /veh WNT11 (11732464_a_at) / RFU C10orf10 (11716521_a_at) / Fold change /veh C10orf10 (11716521_a_at) / RFU C5orf56 (11738089_at) / Fold change /veh C5orf56 (11738089_at) / RFU CYB561 (11721691_x_at) / Fold change /veh CYB561 (11721691_x_at) / RFU ANKRD19P (11752326_a_at) / Fold change /veh ANKRD19P (11752326_a_at) / RFU OR2T12 /// OR2T33 /// OR2T8 (11738714_s_at) / Fold change /veh OR2T12 /// OR2T33 /// OR2T8 (11738714_s_at) / RFU VCAN (11748164_a_at) / Fold change /veh VCAN (11748164_a_at) / RFU JSRP1 (11732532_at) / Fold change /veh JSRP1 (11732532_at) / RFU KRTAP10-11 (11738290_x_at) / Fold change /veh KRTAP10-11 (11738290_x_at) / RFU MYO3A (11730013_a_at) / Fold change /veh MYO3A (11730013_a_at) / RFU EBF3 (11725865_a_at) / Fold change /veh EBF3 (11725865_a_at) / RFU CAMK2N1 (11719241_x_at) / Fold change /veh CAMK2N1 (11719241_x_at) / RFU C5orf56 (11738088_a_at) / Fold change /veh C5orf56 (11738088_a_at) / RFU OLFML3 (11715873_a_at) / Fold change /veh OLFML3 (11715873_a_at) / RFU LOC100653217 /// NTM (11731650_a_at) / Fold change /veh LOC100653217 /// NTM (11731650_a_at) / RFU MAPK11 (11762145_a_at) / Fold change /veh MAPK11 (11762145_a_at) / RFU FIZ1 (11724087_x_at) / Fold change /veh FIZ1 (11724087_x_at) / RFU OASL (11726364_x_at) / Fold change /veh OASL (11726364_x_at) / RFU SOX15 (11748057_x_at) / Fold change /veh SOX15 (11748057_x_at) / RFU CD79A (11719716_a_at) / Fold change /veh CD79A (11719716_a_at) / RFU HIST1H1D (11736915_at) / Fold change /veh HIST1H1D (11736915_at) / RFU CASKIN2 (11723855_a_at) / Fold change /veh CASKIN2 (11723855_a_at) / RFU LOC730098 (11760151_x_at) / Fold change /veh LOC730098 (11760151_x_at) / RFU OR4N2 (11742367_at) / Fold change /veh OR4N2 (11742367_at) / RFU PRRT2 (11749266_a_at) / Fold change /veh PRRT2 (11749266_a_at) / RFU SNX32 (11753110_a_at) / Fold change /veh SNX32 (11753110_a_at) / RFU CDHR5 (11726645_a_at) / Fold change /veh CDHR5 (11726645_a_at) / RFU RCAN1 (11760418_a_at) / Fold change /veh RCAN1 (11760418_a_at) / RFU FAM167A (11723789_a_at) / Fold change /veh FAM167A (11723789_a_at) / RFU FAM26E (11764081_at) / Fold change /veh FAM26E (11764081_at) / RFU ISYNA1 (11749810_s_at) / Fold change /veh ISYNA1 (11749810_s_at) / RFU ACY1 (11761880_at) / Fold change /veh ACY1 (11761880_at) / RFU 11764098_at / Fold change /veh 11764098_at / RFU SAMD14 (11745864_x_at) / Fold change /veh SAMD14 (11745864_x_at) / RFU NPB (11741838_a_at) / Fold change /veh NPB (11741838_a_at) / RFU TMPRSS6 (11731388_a_at) / Fold change /veh TMPRSS6 (11731388_a_at) / RFU KRTAP10-2 (11738614_at) / Fold change /veh KRTAP10-2 (11738614_at) / RFU ARHGAP8 /// PRR5-ARHGAP8 (11727945_x_at) / Fold change /veh ARHGAP8 /// PRR5-ARHGAP8 (11727945_x_at) / RFU KRTAP5-7 /// NADSYN1 (11734609_at) / Fold change /veh KRTAP5-7 /// NADSYN1 (11734609_at) / RFU RASL12 (11751679_a_at) / Fold change /veh RASL12 (11751679_a_at) / RFU CDKN2B (11736163_a_at) / Fold change /veh CDKN2B (11736163_a_at) / RFU PRF1 (11729649_at) / Fold change /veh PRF1 (11729649_at) / RFU, ZNF638 /// ZNF638-IT1 / Fold change vs veh, ZNF638 /// ZNF638-IT1 / RFU, PANK3 / Fold change vs veh, PANK3 / RFU, SH3YL1 / Fold change vs veh, SH3YL1 / RFU, ZEB2 / Fold change vs veh, ZEB2 / RFU, NRIP1 / Fold change vs veh, NRIP1 / RFU, PTTG1IP / Fold change vs veh, PTTG1IP / RFU, CAPN2 / Fold change vs veh, CAPN2 / RFU, MED14 / Fold change vs veh, MED14 / RFU, SNORA58 / Fold change vs veh, SNORA58 / RFU, C1orf63 / Fold change vs veh, C1orf63 / RFU, LRRFIP1 / Fold change vs veh, LRRFIP1 / RFU, NDUFAF7 / Fold change vs veh, NDUFAF7 / RFU, SLC12A2 / Fold change vs veh, SLC12A2 / RFU, IBTK / Fold change vs veh, IBTK / RFU, ESF1 / Fold change vs veh, ESF1 / Fold change vs veh, TMEM50B / RFU, TAOK1 / Fold change vs veh, TAOK1 / RFU, ACBD3 / Fold change vs veh, ACBD3 / RFU, TMA16 / Fold change vs veh, TMA16 / RFU, RWDD3 / Fold change vs veh, RWDD3 / RFU, BCAT1 / Fold change vs veh, BCAT1 / RFU, EDEM3 / Fold change vs veh, EDEM3 / RFU, TMEM33 / Fold change vs veh, TMEM33 / RFU, WDR75 / Fold change vs veh, WDR75 / RFU, AHCTF1 / Fold change vs veh, AHCTF1 / RFU, TFRC / Fold change vs veh, TFRC / RFU, ZDHHC17 / Fold change vs veh, ZDHHC17 / RFU, NOM1 / Fold change vs veh, NOM1 / RFU, ARL8B / Fold change vs veh, ARL8B / RFU, ZBTB11 / Fold change vs veh, ZBTB11 / RFU, TAMM41 / Fold change vs veh, TAMM41 / RFU, KIAA1704 /// LOC100996395 / Fold change vs veh, KIAA1704 /// LOC100996395 / RFU, ING1 / Fold change vs veh, ING1 / RFU, TRMT61B / Fold change vs veh, TRMT61B / RFU, FUBP3 / Fold change vs veh, FUBP3 / RFU, TP53 / Fold change vs veh, TP53 / RFU, TNKS2 / Fold change vs veh, TNKS2 / RFU, ZFP14 / Fold change vs veh, ZFP14 / RFU, ACTR2 / Fold change vs veh, ACTR2 / RFU, PPP3R1 / Fold change vs veh, PPP3R1 / RFU, PIK3R1 / Fold change vs veh, PIK3R1 / RFU, HNRNPA1 / Fold change vs veh, HNRNPA1 / RFU, RNF170 / Fold change vs veh, RNF170 / RFU, ZNF28 / Fold change vs veh, ZNF28 / RFU, RNGTT / Fold change vs veh, RNGTT / RFU, OGT / Fold change vs veh, OGT / RFU, BRD1 / Fold change vs veh, BRD1 / RFU, MARS / Fold change vs veh, MARS / RFU, ZNF655 / Fold change vs veh, ZNF655 / RFU, FAHD1 / Fold change vs veh, FAHD1 / RFU, BDP1 / Fold change vs veh, BDP1 / RFU, LRRCC1 / Fold change vs veh, LRRCC1 / RFU, ARID1A / Fold change vs veh, ARID1A / RFU, ZNF146 / Fold change vs veh, ZNF146 / RFU, ZNF330 / Fold change vs veh, ZNF330 / RFU, GPN3 / Fold change vs veh, GPN3 / RFU, C9orf123 / Fold change vs veh, C9orf123 / RFU, N4BP2L2 / Fold change vs veh, N4BP2L2 / RFU, ARFIP1 / Fold change vs veh, ARFIP1 / RFU, FAM179B / Fold change vs veh, FAM179B / RFU, BCL10 / Fold change vs veh, BCL10 / RFU, UHRF1BP1L / Fold change vs veh, UHRF1BP1L / RFU, BET1 / Fold change vs veh, BET1 / RFU, CNOT2 / Fold change vs veh, CNOT2 / RFU, ZNF268 / Fold change vs veh, ZNF268 / Fold change vs veh, ZNF507 / RFU, DGCR2 / Fold change vs veh, DGCR2 / RFU, WDSUB1 / Fold change vs veh, WDSUB1 / Fold change vs veh, HSP90B1 /// MIR3652 / RFU, ADSS / Fold change vs veh, ADSS / RFU, GK / Fold change vs veh, GK / RFU, ZNF148 / Fold change vs veh, ZNF148 / RFU, TAF9 / Fold change vs veh, TAF9 / RFU, SLC1A5 / Fold change vs veh, SLC1A5 / RFU, SLMO2 / Fold change vs veh, SLMO2 / RFU, ABCC4 / Fold change vs veh, ABCC4 / RFU, LOC101060439 /// RAP1B / Fold change vs veh, LOC101060439 /// RAP1B / RFU, RFX7 / Fold change vs veh, RFX7 / RFU, GTPBP10 / Fold change vs veh, GTPBP10 / RFU, CNEP1R1 / Fold change vs veh, CNEP1R1 / RFU, BIVM-ERCC5 /// ERCC5 / Fold change vs veh, BIVM-ERCC5 /// ERCC5 / RFU, ILF3 / Fold change vs veh, ILF3 / RFU 11762660_at / Fold change /veh 11762660_at / RFU VCAN (11757783_s_at) / Fold change /veh VCAN (11757783_s_at) / RFU DDX43 (11728927_at) / Fold change /veh DDX43 (11728927_at) / RFU KRT8 (11758188_x_at) / Fold change /veh KRT8 (11758188_x_at) / RFU NKD1 (11759106_at) / Fold change /veh NKD1 (11759106_at) / RFU SRD5A1 (11742802_a_at) / Fold change /veh SRD5A1 (11742802_a_at) / RFU TPSAB1 /// TPSB2 (11721975_s_at) / Fold change /veh TPSAB1 /// TPSB2 (11721975_s_at) / RFU GSTM3 (11746129_a_at) / Fold change /veh GSTM3 (11746129_a_at) / RFU IL23R (11737362_x_at) / Fold change /veh IL23R (11737362_x_at) / RFU TMEM51 (11727254_a_at) / Fold change /veh TMEM51 (11727254_a_at) / RFU PIWIL2 (11732686_x_at) / Fold change /veh PIWIL2 (11732686_x_at) / RFU ORM1 (11744905_x_at) / Fold change /veh ORM1 (11744905_x_at) / RFU CCDC152 (11743942_at) / Fold change /veh CCDC152 (11743942_at) / RFU ECM1 (11717891_a_at) / Fold change /veh ECM1 (11717891_a_at) / RFU IL23R (11748794_a_at) / Fold change /veh IL23R (11748794_a_at) / RFU TNFAIP8L3 (11732012_x_at) / Fold change /veh TNFAIP8L3 (11732012_x_at) / RFU MBOAT4 (11741988_at) / Fold change /veh MBOAT4 (11741988_at) / RFU 11764193_at / Fold change /veh 11764193_at / RFU TMEM53 (11763286_at) / Fold change /veh TMEM53 (11763286_at) / RFU MAGEB2 (11727129_at) / Fold change /veh MAGEB2 (11727129_at) / RFU TMEM200A (11744735_a_at) / Fold change /veh TMEM200A (11744735_a_at) / RFU CCDC152 (11751479_a_at) / Fold change /veh CCDC152 (11751479_a_at) / RFU FAM211A (11726209_a_at) / Fold change /veh FAM211A (11726209_a_at) / RFU RGS16 (11746705_a_at) / Fold change /veh RGS16 (11746705_a_at) / RFU VCAN (11755009_s_at) / Fold change /veh VCAN (11755009_s_at) / RFU RHOB (11743442_s_at) / Fold change /veh RHOB (11743442_s_at) / RFU RGS16 (11720943_a_at) / Fold change /veh RGS16 (11720943_a_at) / RFU RGS16 (11720944_at) / Fold change /veh RGS16 (11720944_at) / RFU, VPS4B / Fold change vs veh, VPS4B / RFU, CREB1 / Fold change vs veh, CREB1 / RFU, DNAJC13 / Fold change vs veh, DNAJC13 / RFU, GNAQ / Fold change vs veh, GNAQ / RFU, CDK5R1 / Fold change vs veh, CDK5R1 / RFU, ZRANB3 / Fold change vs veh, ZRANB3 / RFU, CUL4A / Fold change vs veh, CUL4A / RFU, CCNY / Fold change vs veh, CCNY / RFU, UFL1 / Fold change vs veh, UFL1 / RFU, COG3 / Fold change vs veh, COG3 / RFU, DIAPH2 / Fold change vs veh, DIAPH2 / RFU, SKA2 / Fold change vs veh, SKA2 / RFU, AFF3 / Fold change vs veh, AFF3 / RFU, LMF1 / Fold change vs veh, LMF1 / RFU, IPO11 / Fold change vs veh, IPO11 / RFU, DFFB / Fold change vs veh, DFFB / RFU, FOXP1 / Fold change vs veh, FOXP1 / RFU, CARD8 / Fold change vs veh, CARD8 / RFU, STRN3 / Fold change vs veh, STRN3 / RFU, ADK / Fold change vs veh, ADK / RFU, RASSF2 / Fold change vs veh, RASSF2 / RFU, WIPF1 / Fold change vs veh, WIPF1 / RFU, LARP1B / Fold change vs veh, LARP1B / RFU, RASA1 / Fold change vs veh, RASA1 / RFU, RB1 / Fold change vs veh, RB1 / RFU, PPFIA1 / Fold change vs veh, PPFIA1 / RFU, MAT2A / Fold change vs veh, MAT2A / RFU, CCT5 / Fold change vs veh, CCT5 / RFU, WDR92 / Fold change vs veh, WDR92 / RFU, CUX1 / Fold change vs veh, CUX1 / RFU, TTC7A / Fold change vs veh, TTC7A / RFU, TMEM135 / Fold change vs veh, TMEM135 / RFU, DEPTOR / Fold change vs veh, DEPTOR / RFU, CPM / Fold change vs veh, CPM / RFU, DNAJB6 / Fold change vs veh, DNAJB6 / RFU, CACNA2D3 / Fold change vs veh, CACNA2D3 / RFU, DTX4 / Fold change vs veh, DTX4 / RFU, TFCP2 / Fold change vs veh, TFCP2 / RFU, GMCL1 /// GMCL1P1 / Fold change vs veh, GMCL1 /// GMCL1P1 / RFU, AEBP2 / Fold change vs veh, AEBP2 / RFU, SNHG1 /// SNORD22 /// SNORD25 /// SNORD26 /// SNORD27 /// SNORD28 /// SNORD29 /// SNORD31 / Fold change vs veh, SNHG1 /// SNORD22 /// SNORD25 /// SNORD26 /// SNORD27 /// SNORD28 /// SNORD29 /// SNORD31 / Fold change (Aza/veh), C12orf56 (ProbeSet 11735607_a_at) / Fold change (ACY-1035/veh), C12orf56 (ProbeSet 11735607_a_at) / Fold change (Aza/veh), FGFR1OP (ProbeSet 11751329_s_at) / Fold change (ACY-1035/veh), FGFR1OP (ProbeSet 11751329_s_at) / Fold change (Aza/veh), VPS36 (ProbeSet 11739960_a_at) / Fold change (ACY-1035/veh), VPS36 (ProbeSet 11739960_a_at) / RFU SYPL1 (11715823_x_at) / Fold change /veh SYPL1 (11715823_x_at) / RFU IGFBP7 (11715501_s_at) / Fold change /veh IGFBP7 (11715501_s_at) / RFU REEP3 (11722064_at) / Fold change /veh REEP3 (11722064_at) / RFU IGLL1 (11728026_x_at) / Fold change /veh IGLL1 (11728026_x_at): dose or concentration left out as unconfirmed
# Conditions: MV-4-11 cells, 48 hours
structure (smiles),measurement,value
Nc1ccc(-c2cccs2)cc1NC(=O)c1ccc2c(c1)cc(C1CC1)n2CCN1CCOCC1 [ACY-1035],Fold change /veh REEP3 (11722064_at),0.53
